A short description of the assay: Binding affinity to orotidine-5'-monophosphate decarboxylase relative to uracil.

Structures are written as SMILES.

`O=c1cc[nH]c(=S)[nH]1`: the relative binding affinity (RBA) stood at 29. Take `Oc1nccc(S)n1`: the relative binding affinity (RBA) was 61.
